Where two headings read alike, the source gives them in different places.
Legend:
[1] = target: panel of 255 wild-type kinases (Homo sapiens, UniProt P29317); test: Kinase panel profiling at 1 µmol/L (MSA or IMAP), percentage inhibition; type: biochemical; conditions: kinase EPHA2; 1 µmol/L single concentration; read-out: %-inhibition at 1 µmol/L, EPHA2
[2] = target: panel of 255 wild-type kinases (Homo sapiens, UniProt Q9Y6M4); test: as above; type: biochemical; conditions: kinase CK1γ3; 1 µmol/L single concentration; read-out: %-inhibition at 1 µmol/L, CK1γ3
134 cancer cell lines = test: Cell viability assay (ATPlite, 72 hours), IC50 on cancer cell line panel

O=C(Nc1cnn2ccc(N3CCC[C@@H]3c3cc(F)ccc3F)nc12)N1CC[C@H](O)C1 [larotrectinib]
inhibition at 1 µM [1]: 0%
inhibition at 1 µM [2]: -0.832%
IC50 (134 cancer cell lines; HEC-6, read-out: IC50 in cell proliferation assay, HEC-6 cell line (EGFR p.A289V)): > 31.6 µM
IC50 (134 cancer cell lines; Homo sapiens, 769-P, read-out: IC50 in cell proliferation assay, cell line 769-P): > 31.6 µM
IC50 (134 cancer cell lines; Homo sapiens, 786-0, read-out: IC50 in cell proliferation assay, cell line 786-O): > 31.6 µM
IC50 (134 cancer cell lines; Homo sapiens, A 172, read-out: IC50 in cell proliferation assay, cell line A-172): > 31.6 µM
IC50 (134 cancer cell lines; Homo sapiens, A204, read-out: IC50 in cell proliferation assay, cell line A-204): > 31.6 µM
IC50 (134 cancer cell lines; Homo sapiens, A498, read-out: IC50 in cell proliferation assay, cell line A-498): > 31.6 µM
IC50 (134 cancer cell lines; Homo sapiens, A549, read-out: IC50 in cell proliferation assay, cell line A-549): > 31.6 µM
IC50 (134 cancer cell lines; Homo sapiens, A704, read-out: IC50 in cell proliferation assay, cell line A-704): > 31.6 µM
IC50 (134 cancer cell lines; Homo sapiens, A-375, read-out: IC50 in cell proliferation assay, cell line A-375 (BRAF p.V600E)): > 31.6 µM
IC50 (134 cancer cell lines; Homo sapiens, A-427, read-out: IC50 in cell proliferation assay, cell line A-427): > 31.6 µM
IC50 (134 cancer cell lines; Homo sapiens, ACHN, read-out: IC50 in cell proliferation assay, cell line ACHN): > 31.6 µM
IC50 (134 cancer cell lines; Homo sapiens, AN3-CA, read-out: IC50 in cell proliferation assay, cell line AN3-CA (FGFR2 p.N549K)): > 31.6 µM
IC50 (134 cancer cell lines; Homo sapiens, ASPC1, read-out: IC50 in cell proliferation assay, cell line AsPC-1): > 31.6 µM
IC50 (134 cancer cell lines; Homo sapiens, AU565, read-out: IC50 in cell proliferation assay, cell line AU565 (ERBB2 amplification)): > 31.6 µM
IC50 (134 cancer cell lines; Homo sapiens, BT-20, read-out: IC50 in cell proliferation assay, cell line BT-20): > 31.6 µM
IC50 (134 cancer cell lines; Homo sapiens, BT-474, read-out: IC50 in cell proliferation assay, cell line BT-474 (ERBB2 amplification)): > 31.6 µM
IC50 (134 cancer cell lines; Homo sapiens, BT-549, read-out: IC50 in cell proliferation assay, cell line BT-549): > 31.6 µM
IC50 (134 cancer cell lines; Homo sapiens, BXPC-3, read-out: IC50 in cell proliferation assay, cell line BxPC-3): > 31.6 µM
IC50 (134 cancer cell lines; Homo sapiens, C-33-A, read-out: IC50 in cell proliferation assay, cell line C-33 A): > 31.6 µM
IC50 (134 cancer cell lines; Homo sapiens, CAL-27, read-out: IC50 in cell proliferation assay, cell line CAL-27): > 31.6 µM
IC50 (134 cancer cell lines; Homo sapiens, CCF-STTG1, read-out: IC50 in cell proliferation assay, cell line CCF-STTG1): > 31.6 µM
IC50 (134 cancer cell lines; Homo sapiens, CCRF-CEM, read-out: IC50 in cell proliferation assay, cell line CCRF-CEM): > 31.6 µM
IC50 (134 cancer cell lines; Homo sapiens, COLO 205, read-out: IC50 in cell proliferation assay, cell line COLO 205 (BRAF p.V600E)): > 31.6 µM
IC50 (134 cancer cell lines; Homo sapiens, COLO-829, read-out: IC50 in cell proliferation assay, cell line COLO 829 (BRAF p.V600E)): > 31.6 µM
IC50 (134 cancer cell lines; Homo sapiens, DLD-1, read-out: IC50 in cell proliferation assay, cell line DLD-1): > 31.6 µM
IC50 (134 cancer cell lines; Homo sapiens, DU-4475, read-out: IC50 in cell proliferation assay, cell line DU4475 (BRAF p.V600E)): > 31.6 µM
IC50 (134 cancer cell lines; Homo sapiens, Daoy, read-out: IC50 in cell proliferation assay, cell line Daoy): > 31.6 µM
IC50 (134 cancer cell lines; Homo sapiens, DoTc2-4510, read-out: IC50 in cell proliferation assay, cell line DoTc2 4510): > 31.6 µM
IC50 (134 cancer cell lines; Homo sapiens, EOL1, read-out: IC50 in cell proliferation assay, cell line EoL-1 (FIP1L1-PDGFRA)): > 31.6 µM
IC50 (134 cancer cell lines; Homo sapiens, FaDu, read-out: IC50 in cell proliferation assay, cell line FaDu): > 31.6 µM
IC50 (134 cancer cell lines; Homo sapiens, G-361, read-out: IC50 in cell proliferation assay, cell line G-361 (BRAF p.V600E)): > 31.6 µM
IC50 (134 cancer cell lines; Homo sapiens, HCC827, read-out: IC50 in cell proliferation assay, cell line HCC827 (EGFR exon19del)): > 31.6 µM
IC50 (134 cancer cell lines; Homo sapiens, HCC4006, read-out: IC50 in cell proliferation assay, cell line HCC4006 (EGFR exon19del)): > 31.6 µM
IC50 (134 cancer cell lines; Homo sapiens, HCT-15, read-out: IC50 in cell proliferation assay, cell line HCT 15): > 31.6 µM
IC50 (134 cancer cell lines; Homo sapiens, HCT-116, read-out: IC50 in cell proliferation assay, cell line HCT 116): > 31.6 µM
IC50 (134 cancer cell lines; Homo sapiens, HEC-1, read-out: IC50 in cell proliferation assay, HEC-1 cell line): > 31.6 µM
IC50 (134 cancer cell lines; Homo sapiens, HEC-1B, read-out: IC50 in cell proliferation assay, HEC-1-B cell line (EGFR p.A864V)): > 31.6 µM
IC50 (134 cancer cell lines; Homo sapiens, HL-60, read-out: IC50 in cell proliferation assay, HL-60 cell line): > 31.6 µM
IC50 (134 cancer cell lines; Homo sapiens, HT, read-out: IC50 in cell proliferation assay, HT cell line): > 31.6 µM
IC50 (134 cancer cell lines; Homo sapiens, HT-1080, read-out: IC50 in cell proliferation assay, HT-1080 cell line): > 31.6 µM
IC50 (134 cancer cell lines; Homo sapiens, Hs746T, read-out: IC50 in cell proliferation assay, Hs 746.T cell line (MET exon14skip + amplification)): > 31.6 µM
IC50 (134 cancer cell lines; Homo sapiens, Hs-578T, read-out: IC50 in cell proliferation assay, Hs 578T cell line): > 31.6 µM
IC50 (134 cancer cell lines; Homo sapiens, HuTu80, read-out: IC50 in cell proliferation assay, HuTu 80 cell line): > 31.6 µM
IC50 (134 cancer cell lines; Homo sapiens, J82, read-out: IC50 in cell proliferation assay, J82 cell line): > 31.6 µM
IC50 (134 cancer cell lines; Homo sapiens, Jurkat E6.1, read-out: IC50 in cell proliferation assay, Jurkat E6.1 cell line): > 31.6 µM
IC50 (134 cancer cell lines; Homo sapiens, K562, read-out: IC50 in cell proliferation assay, K-562 cell line): > 31.6 µM
IC50 (134 cancer cell lines; Homo sapiens, KATO III, read-out: IC50 in cell proliferation assay, KATO III cell line (FGFR2 amplification)): > 31.6 µM
IC50 (134 cancer cell lines; Homo sapiens, KG-1, read-out: IC50 in cell proliferation assay, KG-1 cell line (FGFR1OP2-FGFR1)): > 31.6 µM
IC50 (134 cancer cell lines; Homo sapiens, KLE, read-out: IC50 in cell proliferation assay, KLE cell line): > 31.6 µM
IC50 (134 cancer cell lines; Homo sapiens, KMS-11, read-out: IC50 in cell proliferation assay, KMS-11 cell line (FGFR3 p.Y373C)): > 31.6 µM
IC50 (134 cancer cell lines; Homo sapiens, KU812, read-out: IC50 in cell proliferation assay, Ku812 cell line): > 31.6 µM
IC50 (134 cancer cell lines; Homo sapiens, Kasumi 1, read-out: IC50 in cell proliferation assay, Kasumi-1 cell line (KIT p.N822K)): > 31.6 µM
IC50 (134 cancer cell lines; Homo sapiens, LC-2-ad, read-out: IC50 in cell proliferation assay, LC-2/ad cell line (CCDC6-RET)): > 31.6 µM
IC50 (134 cancer cell lines; Homo sapiens, LNCaP-Clone-FGC, read-out: IC50 in cell proliferation assay, LNCaP clone FGC cell line): > 31.6 µM
IC50 (134 cancer cell lines; Homo sapiens, LS174T, read-out: IC50 in cell proliferation assay, LS174T cell line): > 31.6 µM
IC50 (134 cancer cell lines; Homo sapiens, LS-411N, read-out: IC50 in cell proliferation assay, LS411N cell line (BRAF p.V600E)): > 31.6 µM
IC50 (134 cancer cell lines; Homo sapiens, LoVo, read-out: IC50 in cell proliferation assay, LoVo cell line): > 31.6 µM
IC50 (134 cancer cell lines; Homo sapiens, MCF7, read-out: IC50 in cell proliferation assay, MCF-7 cell line): > 31.6 µM
IC50 (134 cancer cell lines; Homo sapiens, MDA-MB-231, read-out: IC50 in cell proliferation assay, MDA-MB-231 cell line): > 31.6 µM
IC50 (134 cancer cell lines; Homo sapiens, MDA-MB-453, read-out: IC50 in cell proliferation assay, MDA-MB-453 cell line): > 31.6 µM
IC50 (134 cancer cell lines; Homo sapiens, MDA-MB-468, read-out: IC50 in cell proliferation assay, MDA-MB-468 cell line): > 31.6 µM
IC50 (134 cancer cell lines; Homo sapiens, MG-63, read-out: IC50 in cell proliferation assay, MG-63 cell line): > 31.6 µM
IC50 (134 cancer cell lines; Homo sapiens, MIA PaCa-2, read-out: IC50 in cell proliferation assay, MIA PaCa-2 cell line): > 31.6 µM
IC50 (134 cancer cell lines; Homo sapiens, MKN-45, read-out: IC50 in cell proliferation assay, MKN45 cell line (MET amplification)): > 31.6 µM
IC50 (134 cancer cell lines; Homo sapiens, MOLM-13, read-out: IC50 in cell proliferation assay, MOLM-13 cell line (FLT3 ITD)): 12.6 µM
IC50 (134 cancer cell lines; Homo sapiens, MOLT-4, read-out: IC50 in cell proliferation assay, MOLT-4 cell line): > 31.6 µM

From paper PMC9516332 (Frontiers in Oncology, 2022)
